Measurements from ChEMBL document CHEMBL4665834 (J Med Chem, 2020).
In brackets after ≈: the same amount, converted by molar mass. Values belong to the compound of their own block, whether it stands above or below them. Activity calls are given as the source filed them. The calls are words filed in the database; no cut-off is given here.

How the values were obtained:
[1] = Efflux ratio of apparent permeability across basolateral to apical side over apical to basolateral side in human Caco-2 cells measured after 2 hrs by HPLC analysis; type: ADME, cell-based
[2] = Clearance in Wistar rat hepatocytes assessed as extrapolated blood clearance at 1 uM measured after 2 to 90 mins by LC-MS/MS analysis; type: ADME, cell-based, Hepatocyte; settings: time 2-90 min
Homo sapiens [3] = species: Homo sapiens; assay: Selectivity ratio of IC50 for displacement of [3H]prostaglandin E2 from full-length recombinant human EP4 receptor expressed in Chem-1 cell membranes to IC50 for displacement of [3H]PGF2alpha from full-length recombinant human FP receptor expressed in HEK293 cell membranes
[4] = Relative oral bioavailability in Wistar rat at 1 to 3 mg/kg administered via gavage using crystalline form of sample in sodium salt formulation by LC-MS/MS analysis; type: ADME, organism-based; settings: in vivo, dose 1-3 mg/kg
[5] = Relative oral bioavailability in Wistar rat at 1 to 3 mg/kg administered via gavage in 99.5% water, 0.5% Tylose and TRIS salt formulation by LC-MS/MS analysis; type: ADME, organism-based; settings: in vivo, dose 1-3 mg/kg
[6] = Solubility of compound at pH 1 to 7 using crystalline form of sample; type: physicochemical
[7] = Half life in Wistar rat at 0.3 to 1 mg/kg, iv administered as bolus dose by LC-MS/MS analysis; type: ADME, organism-based; settings: in vivo, dose 0.3-1 mg/kg
[8] = Oral bioavailability in Wistar rat at 1 to 3 mg/kg administered via gavage using EtOH/PEG400/H2O 10/40/50 formulation by LC-MS/MS analysis; type: ADME, organism-based; settings: in vivo, dose 1-3 mg/kg
[9] = Clearance in Wistar rat at 0.3 to 1 mg/kg, iv administered as bolus dose or 15 mins infusion by LC-MS/MS analysis; type: ADME, organism-based; settings: in vivo, dose 0.3-1 mg/kg; for clearance: Wistar
Cytochrome P450 3A4 = Cytochrome P450 3A4 (Homo sapiens, UniProt P08684); assay: Inhibition of CYP3A4 in human liver microsomes using midazolam as substrate incubated for 10 mins in presence of NADPH generating system by LC-MS/MS analysis
[10] = Protein binding in pooled human plasma assessed as unbound fraction incubated for 6 hrs by LC-MS/MS analysis based equilibrium dialysis method; type: ADME, cell-free
[11] = Lipophilicity, log D of compound at pH 7.5 by HPLC analysis; settings: buffer
[12] = biological target: Prostaglandin F2-alpha receptor (Homo sapiens, UniProt P43088); assay: Antagonist activity at human FPR expressed in human Chem-1 cells assessed as inhibition of PGF2alpha-induced calcium flux preincubated for 10 mins followed by PGF2alpha stimulation and measured for 120 secs by fluo-8 AM dye based fluorescence assay; type: functional, cell-based
[13] = Solubility of compound in water using crystalline form of sample; type: physicochemical
[14] = Apparent permeability in human Caco-2 cells measured after 2 hrs by HPLC analysis; type: ADME, cell-based
Homo sapiens [15] = species: Homo sapiens; assay: Selectivity ratio of IC50 for displacement of [3H]PGD2 from full-length recombinant human IP receptor expressed in HEK293 cell membranes to IC50 for displacement of [3H]PGF2alpha from full-length recombinant human FP receptor expressed in HEK293 cell membranes
Homo sapiens [16] = species: Homo sapiens; assay: Selectivity ratio of IC50 for displacement of [3H]PGD2 from full-length recombinant human DP1 receptor expressed in Chem-1 cell membranes to IC50 for displacement of [3H]PGF2alpha from full-length recombinant human FP receptor expressed in HEK293 cell membranes
Homo sapiens [17] = species: Homo sapiens; assay: Selectivity ratio of IC50 for displacement of [3H]prostaglandin E2 from full-length recombinant human EP3 receptor expressed in HEK293 cell membranes to IC50 for displacement of [3H]PGF2alpha from full-length recombinant human FP receptor expressed in HEK293 cell membranes
Homo sapiens [18] = species: Homo sapiens; assay: Selectivity ratio of IC50 for displacement of [3H]prostaglandin E2 from full-length recombinant human EP2 receptor expressed in HEK293 cell membranes to IC50 for displacement of [3H]PGF2alpha from full-length recombinant human FP receptor expressed in HEK293 cell membranes
Homo sapiens [19] = species: Homo sapiens; assay: Selectivity ratio of IC50 for displacement of [3H]prostaglandin E2 from full-length recombinant human EP1 receptor expressed in HEK293 cell membranes to IC50 for displacement of [3H]PGF2alpha from full-length recombinant human FP receptor expressed in HEK293 cell membranes
Mus musculus [20] = assay: Antifibrotic activity in silica-induced pulmonary fibrosis C57Bl6J mouse model assessed as decrease in lung osteopontin production at 3 to 30 mg/kg, po bid for 9 days measured post-last dose by Bio-Rad analysis; type: functional, organism-based; settings: dose mg/kg 3-30, time 9.0 day
Mus musculus [21] = assay: Antifibrotic activity in silica-induced pulmonary fibrosis C57Bl6J mouse model assessed as decrease in lung IL1beta production at 3 to 30 mg/kg, po bid for 9 days measured post-last dose by Bio-Rad analysis; type: functional, organism-based; settings: dose mg/kg 3-30, time 9.0 day
Mus musculus [22] = assay: Antifibrotic activity in silica-induced pulmonary fibrosis C57Bl6J mouse model assessed as decrease in lung MCP1 production at 3 to 30 mg/kg, po bid for 9 days measured post-last dose by Bio-Rad analysis; type: functional, organism-based; settings: dose mg/kg 3-30, time 9.0 day
[23] = biological target: Prostaglandin F2-alpha receptor (Mus musculus) (UniProt P43117); assay: Antagonist activity at FPR in mouse NIH3T3 cells co-transfected with mtClytin assessed as inhibition of PGF2alpha-induced calcium flux preincubated for 5 mins followed by PGF2alpha stimulation and measured for 60 secs by calcium dye based fluorescence assay; type: functional, cell-based; settings: filed as antagonist, time 6.0 min
[24] = Toxicity in Wistar rat up to 200 mg/kg/day, po administered for 14 days; type: organism-based; settings: in vivo, 336 h, time 14 day
[25] = Induction of CYP3A4 mRNA expression in human hepatocytes supplemented with fresh medium containing compounds daily for 2 days measured 24 hrs post last dose by qRT-PCR analysis; settings: 72 h

Sequence of Cytochrome P450 3A4 (P08684 whole entry): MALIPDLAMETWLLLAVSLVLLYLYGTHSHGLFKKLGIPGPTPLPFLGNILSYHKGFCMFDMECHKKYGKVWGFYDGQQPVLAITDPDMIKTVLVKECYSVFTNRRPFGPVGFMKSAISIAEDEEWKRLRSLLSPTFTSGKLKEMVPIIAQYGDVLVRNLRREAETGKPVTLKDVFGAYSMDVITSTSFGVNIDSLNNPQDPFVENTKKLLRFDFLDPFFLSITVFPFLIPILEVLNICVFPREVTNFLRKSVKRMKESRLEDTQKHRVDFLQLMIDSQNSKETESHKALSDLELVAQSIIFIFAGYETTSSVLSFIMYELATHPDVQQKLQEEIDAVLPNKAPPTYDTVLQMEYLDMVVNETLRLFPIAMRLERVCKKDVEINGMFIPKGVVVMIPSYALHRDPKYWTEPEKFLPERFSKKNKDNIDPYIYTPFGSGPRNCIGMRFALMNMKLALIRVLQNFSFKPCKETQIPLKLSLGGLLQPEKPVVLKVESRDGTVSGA
Sequence of Prostaglandin F2-alpha receptor (P43088 whole entry): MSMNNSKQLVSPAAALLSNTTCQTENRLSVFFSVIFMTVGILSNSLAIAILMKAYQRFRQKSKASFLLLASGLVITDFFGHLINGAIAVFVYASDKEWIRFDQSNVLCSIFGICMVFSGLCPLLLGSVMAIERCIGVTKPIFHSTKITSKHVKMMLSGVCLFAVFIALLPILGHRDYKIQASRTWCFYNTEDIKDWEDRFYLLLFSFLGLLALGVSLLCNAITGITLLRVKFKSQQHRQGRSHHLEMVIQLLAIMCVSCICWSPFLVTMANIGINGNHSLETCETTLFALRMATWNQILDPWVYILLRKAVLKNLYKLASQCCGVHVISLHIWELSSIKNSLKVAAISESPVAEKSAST
Sequence of Prostaglandin F2-alpha receptor (Mus musculus) (P43117 whole entry): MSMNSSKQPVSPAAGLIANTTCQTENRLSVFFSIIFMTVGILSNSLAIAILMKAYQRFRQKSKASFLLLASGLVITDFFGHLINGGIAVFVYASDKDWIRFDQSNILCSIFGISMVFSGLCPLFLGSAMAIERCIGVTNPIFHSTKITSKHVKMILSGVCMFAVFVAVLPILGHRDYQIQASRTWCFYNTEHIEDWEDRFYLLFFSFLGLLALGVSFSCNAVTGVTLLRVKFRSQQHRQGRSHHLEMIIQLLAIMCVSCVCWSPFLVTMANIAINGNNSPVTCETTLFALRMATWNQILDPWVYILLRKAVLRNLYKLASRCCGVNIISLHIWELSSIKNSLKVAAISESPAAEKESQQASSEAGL

efflux ratio at 2 h [1]: 18
CLhep predicted at 1 µM [2]: 58.3 mL/min/kg
Compound: Cc1c(-c2ccccc2)nc2ccc(Br)cc2c1C(=O)Nc1ccc(C(N)=O)cc1F
Ratio IC50 (Homo sapiens [3]): 16

bioavailability [4]: 29%
Compound: Cc1c(-c2ccccc2)nc2ccc(Br)cc2c1C(=O)Nc1ccc(C(=O)[O-])cc1F.[Na+]

solubility [6]: 1 µg/mL (≈ 2.09 µM)
half-life [7]: 3.1 h
bioavailability [8]: 100%
clearance [9]: 16.7 mL/min/kg
IC50 (Cytochrome P450 3A4): > 20000 nM
fraction unbound at 6 h [10]: 0.016
logD [11]: 1.9
IC50 [12]: 27 nM
Compound: Cc1c(-c2ccccc2)nc2ccc(Br)cc2c1C(=O)Nc1ccc(C(=O)O)cc1F

half-life [7]: 2.6 h
bioavailability [8]: 90%
CL ([9]; 0.25 h): 43.3 mL/min/kg
IC50 (Cytochrome P450 3A4): > 20000 nM
logD [11]: 2
Compound: Cc1c(-c2ccccc2)nc2ccc(Br)cc2c1C(=O)NCC(CC(=O)O)c1ccccc1Cl (single isomer, unassigned; (+))
Activity [24]: Non-Toxic
NOAEL [25]: 6 µM

More lines, now with the values behind:

Compound: Cc1c(-c2ccccc2)nc2ccc(Br)cc2c1C(=O)NC12CCC(C(=O)O)(CC1)CC2.NC(CO)(CO)CO
bioavailability [5]: 79%

Compound: Cc1c(N2CCCC2)nc2ccc(Br)cc2c1C(=O)NC[C@H](CCC(=O)O)c1ccccc1Cl.Cl
solubility [13]: 2300 µg/mL

Compound: Cc1c(C(=O)Nc2ccc(C(=O)O)cc2F)c2cc(Br)ccc2c(=O)n1-c1ccccc1
efflux ratio at 2 h [1]: 7.4
Papp at 2 h [14]: 3.9 ×10⁻⁶ cm/s
clearance [9]: 100 mL/min/kg
IC50 (Cytochrome P450 3A4): > 20000 nM
logD [11]: 1.6
Ratio IC50 (Homo sapiens [15]): > 1600
Ratio IC50 (Homo sapiens [16]): > 1600
Ratio IC50 (Homo sapiens [3]): 170
Ratio IC50 (Homo sapiens [17]): > 1600
Ratio IC50 (Homo sapiens [18]): > 1600
Ratio IC50 (Homo sapiens [19]): > 1600
IC50 [12]: 40 nM

Compound: Cc1c(-c2ccccc2)nc2ccc(Br)cc2c1C(=O)Nc1ccc(C(=O)O)cc1F.NC(CO)(CO)CO
bioavailability [5]: 37%

Compound: Cc1c(N2CCCC2)nc2ccc(Br)cc2c1C(=O)NC[C@H](CCC(=O)O)c1ccccc1Cl
Activity (Mus musculus [20]): Active
Activity (Mus musculus [21]): Active
Activity (Mus musculus [22]): Active
fIC50 [23]: 5.2 nM
